Data as given in patent publication US20230263822A1, “MODULATION OF FACTOR 11 EXPRESSION” (Ionis Pharmaceuticals, Inc., priority 2008, published 2023).

Assay: Hematology assays in cynomolgus monkeys (Example 45)
Type: in vivo
Procedure: Groups, each consisting of two male and three female monkeys, were injected subcutaneously with ISIS 416838, ISIS 416850, ISIS 416858, ISIS 416864, or ISIS 417002 in escalating doses. Antisense oligonucleotide was administered to the monkeys at 5 mg/kg three times per a week for week 1; 5 mg/kg twice per week for weeks 2 and 3; 10 mg/kg three times per week for week 4; 10 mg/kg twice per week for weeks 5 and 6; 25 mg/kg three times per week for week 7; and 25 mg/kg twice per week for weeks 8, 9, 10, 11, and 12. One control group, consisting of two male and three female monkeys, was injected subcutaneously with PBS according to the same dosing regimen. An additional experimental group, consisting of two male and three female monkeys, was injected subcutaneously with ISIS 416850 in a chronic, lower dose regimen. Antisense oligonucleotide was administered to the monkeys at 5 mg/kg three times per week for week 1; 5 mg/kg twice per week for week 2 and 3; 10 mg/kg three times per week for week 4; and 10 mg/kg twice per week for weeks 5 to 12. Body weights were measured weekly. Blood samples were collected 14 days and 5 days before the start of treatment and subsequently once per week for Factor 11 protein activity analysis in plasma, fibrinogen measurement, PT and aPTT measurements, bleeding times, and measurement of various hematologic factors. On day 85, the monkeys were euthanized by exsanguination while under deep anesthesia, and organs harvested for further analysis.
The ISIS oligonucleotide, ISIS 416850, given with the chronic dose regimen is distinguished from the other oligonucleotides with an asterisk (*).

[1] = day 43, chronic dose regimen (*)
[2] = day 43, escalating dose regimen
[3] = day 50, chronic dose regimen (*)
[4] = day 50, escalating dose regimen
[5] = day 57, escalating dose regimen
[6] = day 64, escalating dose regimen
[7] = day 71, escalating dose regimen
[8] = day 78, escalating dose regimen
[9] = day 85, escalating dose regimen
[10] = day −5, chronic dose regimen (*)
[11] = day −5, escalating dose regimen
[12] = day −14, chronic dose regimen (*)
[13] = day −14, escalating dose regimen

ISIS 416850: MOE gapmer, nucleobases 1275 to 1318 of SEQ ID NO: 1 (Table 8) (antisense TGCACAGTTTCTGGCAGGCC; MOE gapmer, wing and gap sizes not given here)
monocytes [1]: 1.8%
neutrophils [1]: 61%
platelet count [1]: 391000 µL⁻¹
reticulocytes [1]: 1.0%
MCH [2]: 23 pg
MCHC [2]: 29 g/dL
MCV [2]: 79 fL
RBC count [2]: 5.2e+06 µL⁻¹
WBC count [2]: 9000 µL⁻¹
hematocrit [2]: 40%
hemoglobin [2]: 11.8 g/dL
basophils (day 50): 0.3%
eosinophils (day 50): 1.2%
lymphocytes (day 50): 49%
monocytes (day 50): 3.7%
neutrophils (day 50): 45%
platelet count (day 50): 487000 µL⁻¹
reticulocytes (day 50): 2.7%
MCH [3]: 23 pg
MCHC [3]: 29 g/dL
MCV [3]: 80 fL
RBC count [3]: 5.3e+06 µL⁻¹
WBC count [3]: 15000 µL⁻¹
basophils [3]: 0.2%
eosinophils [3]: 0.3%
hematocrit [3]: 42%
hemoglobin [3]: 11.9 g/dL
lymphocytes [3]: 35%
monocytes [3]: 1.8%
neutrophils [3]: 62%
platelet count [3]: 351000 µL⁻¹
reticulocytes [3]: 1.2%
MCH [4]: 23 pg
MCHC [4]: 28 g/dL
MCV [4]: 83 fL
RBC count [4]: 5.2e+06 µL⁻¹
WBC count [4]: 11000 µL⁻¹
hematocrit [4]: 42%
hemoglobin [4]: 11.8 g/dL
basophils (day 57): 0.4%
eosinophils (day 57): 1.0%
lymphocytes (day 57): 45%
monocytes (day 57): n.d.3.2%
neutrophils (day 57): 49%
platelet count (day 57): 528000 µL⁻¹
reticulocytes (day 57): 2.0%
MCH [5]: 23 pg
MCHC [5]: 29 g/dL
MCV [5]: 80 fL
RBC count [5]: 5.2e+06 µL⁻¹
WBC count [5]: 11000 µL⁻¹
hematocrit [5]: 42%
hemoglobin [5]: 12.1 g/dL
basophils (day 64): 0.4%
eosinophils (day 64): 1.3%
lymphocytes (day 64): 53%
monocytes (day 64): n.d.3.5%
neutrophils (day 64): 41%
platelet count (day 64): 496000 µL⁻¹
reticulocytes (day 64): 1.7%
MCHC [6]: 29 g/dL
MCV [6]: 79 fL
RBC count [6]: 5.4e+06 µL⁻¹
WBC count [6]: 11000 µL⁻¹
hematocrit [6]: 43%
hemoglobin [6]: 12.3 g/dL
basophils (day 71): 0.3%
eosinophils (day 71): 1.8%
lymphocytes (day 71): 61%
monocytes (day 71): n.d.4.7%
neutrophils (day 71): 27%
platelet count (day 71): 465000 µL⁻¹
reticulocytes (day 71): 1.8%
MCHC [7]: 28 g/dL
MCV [7]: 80 fL
RBC count [7]: 5.4e+06 µL⁻¹
WBC count [7]: 15000 µL⁻¹
hematocrit [7]: 43%
hemoglobin [7]: 12.3 g/dL
basophils (day 78): 0.3%
eosinophils (day 78): 1.0%
lymphocytes (day 78): 51%
monocytes (day 78): n.d.4.5%
neutrophils (day 78): 42%
platelet count (day 78): 449000 µL⁻¹
reticulocytes (day 78): 1.8%
MCHC [8]: 29 g/dL
MCV [8]: 79 fL
RBC count [8]: 5.3e+06 µL⁻¹
WBC count [8]: 12000 µL⁻¹
hematocrit [8]: 41%
hemoglobin [8]: 12.2 g/dL
basophils (day 85): 0.3%
eosinophils (day 85): 1.2%
lymphocytes (day 85): 34%
monocytes (day 85): n.d.3.5%
neutrophils (day 85): 60%
platelet count (day 85): 458000 µL⁻¹
reticulocytes (day 85): 2.3%
MCHC [9]: 30 g/dL
MCV [9]: 77 fL
RBC count [9]: 5.5e+06 µL⁻¹
WBC count [9]: 15000 µL⁻¹
hematocrit [9]: 42%
hemoglobin [9]: 12.7 g/dL
basophils (day −5): 0.2%
eosinophils (day −5): 1.6%
lymphocytes (day −5): 43%
monocytes (day −5): 2.8%
neutrophils (day −5): 52%
platelet count (day −5): 573000 µL⁻¹
reticulocytes (day −5): 1.2%
MCH [10]: 23 pg
MCHC [10]: 30 g/dL
MCV [10]: 78 fL
RBC count [10]: 5.5e+06 µL⁻¹
WBC count [10]: 15000 µL⁻¹
basophils [10]: 0.3%
eosinophils [10]: 0.7%
hematocrit [10]: 43%
hemoglobin [10]: 12.8 g/dL
lymphocytes [10]: 43%
monocytes [10]: 2.4%
neutrophils [10]: 53%
platelet count [10]: 434000 µL⁻¹
reticulocytes [10]: 0.8%
MCH [11]: 23 pg
MCHC [11]: 30 g/dL
MCV [11]: 77 fL
RBC count [11]: 5.5e+06 µL⁻¹
WBC count [11]: 13000 µL⁻¹
hematocrit [11]: 43%
hemoglobin [11]: 12.7 g/dL
basophils (day −14): 0.2%
eosinophils (day −14): 1.0%
lymphocytes (day −14): 47%
monocytes (day −14): 2.3%
neutrophils (day −14): 49%
platelet count (day −14): 528000 µL⁻¹
reticulocytes (day −14): 1.7%
MCH [12]: 24 pg
MCHC [12]: 29 g/dL
MCV [12]: 81 fL
RBC count [12]: 5.5e+06 µL⁻¹
WBC count [12]: 15000 µL⁻¹
basophils [12]: 0.2%
eosinophils [12]: 0.5%
hematocrit [12]: 44%
hemoglobin [12]: 12.8 g/dL
lymphocytes [12]: 47%
monocytes [12]: 2.9%
neutrophils [12]: 48%
platelet count [12]: 387000 µL⁻¹
reticulocytes [12]: 1.1%
MCH [13]: 23 pg
MCHC [13]: 30 g/dL
MCV [13]: 78 fL
RBC count [13]: 5.3e+06 µL⁻¹
WBC count [13]: 13000 µL⁻¹
hematocrit [13]: 41%
hemoglobin [13]: 12.4 g/dL
